Assay results reported in patent US8791143B2, “Anthranilic diamide derivatives having cyclic side-chains” (priority 2010, dated 2014).
Like-named read-outs stand apart in the source and are kept apart here.

How the values were obtained:
[1] = system: caterpillars of the armyworm (Spodoptera frugiperda); assay: Spodoptera frugiperda test (SPODFR spray treatment); type: in vivo; details: Spodoptera frugiperda, 168 h; for pest or weed control at 100 g/ha / pest or weed control at 500 g/ha: read-out: activity in % (caterpillars killed); for pest or weed control at 500 g/ha: application rate 500 g/ha
Lucilia cuprina larvae = assay: Lucilia cuprina test (LUCICU); type: in vivo; details: 1152 h, read-out: activity (kill in %)
Procedure: (§1) Solvent: dimethyl sulphoxide
Vessels containing horse meat treated with the active ingredient preparation of the desired concentration are populated with about 20 Lucilia cuprina larvae.
(§2) After 48 days, the kill in % is determined.

[2] = system: larvae of the mustard beetle (Phaedon cochleariae); assay: Phaedon test (PHAECO spray treatment); details: Phaedon cochleariae, 168 h, read-out: activity in % (beetle larvae killed)
[3] = log P by HPLC on reversed-phase columns (EEC Directive 79/831 Annex V.A8); type: physicochemical
Boophilus microplus = Boophilus microplus test (BOOPMI injection); type: in vivo; details: Rhipicephalus microplus, 168 h; 20 μg/animal, injection into the abdomen, after 7 days; read-out: activity in % (no fertile eggs laid)
Procedure: as §1
The active compound solution is injected into the abdomen (Boophilus microplus), and the animals are transferred into dishes and stored in a climate-controlled room.
The activity is assessed by […] of fertile eggs. 100% means that none of the ticks has laid any fertile eggs.

adult Musca domestica = assay: Musca domestica test (MUSCDO); type: in vivo; details: 1152 h, after 48 days, read-out: activity (kill in %)
Procedure: as §1
Vessels containing a sponge treated with the active compound preparation of the desired concentration are populated with adult Musca domestica.
as §2

[4] = system: green peach aphid (Myzus persicae); assay: Myzus test (MYZUPE spray treatment); type: in vivo; details: Myzus persicae, 144 h; for pest or weed control at 100 g/ha / pest or weed control at 500 g/ha: read-out: activity in % (aphids killed)
[5] = application rate 100 g/ha, after 7 days
[6] = reversed-phase C18 HPLC column, pH 2.7, HPLC reversed-phase C18, acidic range pH 2.7 (HCOOH), only or first value of the cell, read-out: log P
[7] = application rate 100 g/ha, after 6 days
[8] = application rate 500 g/ha, after 6 days

| chromatographic logP [3, 6] | Compound | pest or weed control at 100 g/ha [1] [%] | pest or weed control at 100 g/ha [2] [%] | chromatographic logP ([3]; pH 2.7, log P) | pest or weed control at 0.02 mg (Boophilus microplus) [%] | pest or weed control at 100 g/ha [1, 5] [%] | pest or weed control at 100 ppm (Lucilia cuprina larvae; 100 ppm, after 48 days) [%] | pest or weed control at 100 g/ha [4, 7] [%] | other results |
| --- | --- | --- | --- | --- | --- | --- | --- | --- | --- |
| 2.82 | Cc1cc(C#N)cc(C(=O)NC2CCS(=O)(=O)C2)c1NC(=O)c1cc(Cn2nnc(C(F)(F)F)n2)nn1-c1ccccc1Cl (stereo not drawn) [Example 36] | – | 100 | – | 100 | 100 | 100 | 100 | pest or weed control at 100 ppm (adult Musca domestica): 80%; inhibition at 100 g/ha ([1]; 100 g/ha, 7 d, comparison with prior art): 100%; inhibition at 100 g/ha ([4]; 100 g/ha, 6 d, comparison with prior art): 100% |
| 3.13 | Cc1cc(Cl)cc(C(=O)NC2CCS(=O)(=O)C2)c1NC(=O)c1cc(Cn2nnc(C(F)(F)C(F)(F)F)n2)nn1-c1ncccc1Cl (stereo not drawn) [Example 37] | – | – | – | 100 | – | 100 | – | pest or weed control at 100 ppm (adult Musca domestica): 80%; pest or weed control at 500 g/ha ([1]; after 7 days): 100%; pest or weed control at 500 g/ha [2]: 100%; pest or weed control at 500 g/ha [4, 8]: 100% |
| 3.25 | Cc1cc(C#N)cc(C(=O)NC2CCSC2=O)c1NC(=O)c1cc(Cn2nnc(C(F)(F)C(F)(F)F)n2)nn1-c1ncccc1Cl (stereo not drawn) [Example 40] | – | – | – | 100 | – | 100 | – | pest or weed control at 500 g/ha ([1]; after 7 days): 100%; pest or weed control at 500 g/ha [2]: 100% |
| 2.95 | Cc1cc(C#N)cc(C(=O)NC2CCS(=O)(=O)C2)c1NC(=O)c1cc(Cn2nnc(C(F)(F)F)n2)nn1-c1c(Cl)cccc1Cl (stereo not drawn) [Example 54] | – | 100 | – | – | 100 | – | 80 | – |
| 3.68 | Cc1cc(C#N)cc(C(=O)NCc2ccc(S(F)(F)(F)(F)F)cc2)c1NC(=O)c1cc(Cn2nnnc2C(F)(F)F)nn1-c1ncccc1Cl [Example 69] | – | 100 | – | 100 | 100 | 100 | – | pest or weed control at 20 ppm (adult Musca domestica): 80% |
| 3.65 | Cc1cc(Cl)cc(C(=O)NCc2ccc([N+](=O)[O-])cc2)c1NC(=O)c1cc(Cn2nnc(C(F)(F)F)n2)nn1-c1ncccc1Cl [Example 97] | – | 100 | – | – | 100 | – | 90 | – |
| 3.81 | Cc1cc(Cl)cc(C(=O)NCc2ccccc2OC(F)(F)F)c1NC(=O)c1cc(Cn2nnc(C(F)F)n2)nn1-c1ncccc1Cl [Example 150] | – | 100 | – | – | 100 | – | 100 | – |
| 3.78 | Cc1cc(Cl)cc(C(=O)NCc2ccc(OC(F)(F)F)cc2)c1NC(=O)c1cc(Cn2nnc(C(F)F)n2)nn1-c1ncccc1Cl [Example 151] | – | 100 | – | – | 100 | – | 100 | – |
| 3.87 | Cc1cc(Cl)cc(C(=O)NCc2ccc(OC(F)F)cc2)c1NC(=O)c1cc(Cn2nnc(C(F)(F)F)n2)nn1-c1ncccc1Cl [Example 152] | – | 100 | – | – | 100 | – | 100 | – |
| 3.89 | Cc1cc(C#N)cc(C(=O)NCc2ccccc2OC(F)(F)F)c1NC(=O)c1cc(Cn2nnc(C(F)(F)F)n2)nn1-c1ncccc1Cl [Example 153] | – | 100 | – | – | 100 | – | 90 | – |
| 4.3 | O=C(NCc1ccccc1OC(F)(F)F)c1cc(Br)cc(Cl)c1NC(=O)c1cc(Cn2nnc(C(F)(F)F)n2)nn1-c1ncccc1Cl [Example 193] | – | 100 | – | – | 100 | – | 90 | – |
| 3.9 | O=C(NCc1ccc(Cl)cc1)c1cc(Cl)cc(F)c1NC(=O)c1cc(Cn2nnc(C(F)(F)F)n2)nn1-c1ncccc1Cl [Example 206] | – | 100 | – | – | 100 | – | 100 | – |

The remaining lines, values behind:

| Compound | chromatographic logP [3, 6] | pest or weed control at 100 g/ha [1] [%] | pest or weed control at 100 g/ha [2] [%] | chromatographic logP ([3]; pH 2.7, log P) | pest or weed control at 0.02 mg (Boophilus microplus) [%] | pest or weed control at 100 g/ha [1, 5] [%] | pest or weed control at 100 ppm (Lucilia cuprina larvae; 100 ppm, after 48 days) [%] | pest or weed control at 100 g/ha [4, 7] [%] | other results |
| --- | --- | --- | --- | --- | --- | --- | --- | --- | --- |
| Cc1cc(Cl)cc(C(=O)NC2COC2)c1NC(=O)c1cc(Cn2cc(Br)c(C(F)(F)F)n2)nn1-c1ncccc1Cl [Example 24] | – | 100 | 100 | 3.2 | 100 | – | – | – | pest or weed control at 100 ppm (Lucilia cuprina larvae): 100% |
| Cc1cc(C#N)cc(C(=O)NC2COC2)c1NC(=O)c1cc(Cn2nnc(C(F)(F)F)n2)nn1-c1ccccc1Cl [Example 26] | 2.85 | – | 100 | – | 100 | 100 | 100 | 100 | pest or weed control at 100 ppm (adult Musca domestica): 80% |
| Cc1cc(C#N)cc(C(=O)NC2COC2)c1NC(=O)c1cc(Cn2nnc(C(F)(F)F)n2)nn1-c1c(F)cccc1F [Example 27] | 2.79 | – | 100 | – | 100 | 100 | 100 | 80 | pest or weed control at 20 ppm (adult Musca domestica): 100% |
| Cc1cc(C#N)cc(C(=O)NC2CCN(Cc3ccccc3)C2)c1NC(=O)c1cc(Cn2nnc(C(F)(F)F)n2)nn1-c1ncccc1Cl (stereo not drawn) [Example 30] | 1.9 | – | – | – | 100 | – | 100 | – | pest or weed control at 20 ppm (adult Musca domestica): 80%; pest or weed control at 500 g/ha ([1]; after 7 days): 100%; pest or weed control at 500 g/ha [2]: 100%; pest or weed control at 500 g/ha [4, 8]: 100% |
| Cc1cc(Cl)cc(C(=O)NC2CCN(Cc3ccccc3)C2)c1NC(=O)c1cc(Cn2nnc(C(F)(F)F)n2)nn1-c1ncccc1Cl (stereo not drawn) [Example 31] | 2.03 | – | – | – | 100 | – | 100 | – | pest or weed control at 500 g/ha ([1]; after 7 days): 100%; pest or weed control at 500 g/ha [2]: 100%; pest or weed control at 500 g/ha [4, 8]: 100% |
| Cc1cc(Cl)cc(C(=O)NC2CCN(Cc3ccccc3)C2)c1NC(=O)c1cc(Cn2nnc(C(F)(F)C(F)(F)F)n2)nn1-c1ncccc1Cl (stereo not drawn) [Example 33] | 2.3 | – | – | – | 100 | – | 100 | – | pest or weed control at 500 g/ha ([1]; after 7 days): 100%; pest or weed control at 500 g/ha [2]: 100% |
| Cc1cc(Cl)cc(C(=O)N[C@@H]2CCOC2=O)c1NC(=O)c1cc(Cn2nnc(C(F)(F)C(F)(F)F)n2)nn1-c1ncccc1Cl [Example 43] | – | 100 | 100 | 3.21 | 100 | – | – | – | pest or weed control at 100 ppm (Lucilia cuprina larvae): 100%; log P (second value after the slash) ([3]; pH 2.7): 2.92; pest or weed control at 500 g/ha [4]: 100% |
| Cc1cc(Cl)cc(C(=O)NC(C)C2CCCO2)c1NC(=O)c1cc(Cn2nnc(C(F)(F)F)n2)nn1-c1ncccc1Cl (stereo not drawn) [Example 62] | – | 100 | 100 | 3.45 | – | – | – | – | pest or weed control at 100 g/ha [4]: 100% |
| Cc1cc(C#N)cc(C(=O)NCc2ccccc2)c1NC(=O)c1cc(Cn2nnc(C(F)(F)F)n2)nn1-c1ncccc1Cl [Example 70] | – | 100 | 100 | 3.38 | – | – | – | – | pest or weed control at 100 g/ha [4]: 100% |
| Cc1cc(Cl)cc(C(=O)Nc2ccccc2)c1NC(=O)c1cc(Cn2nnc(C(F)(F)F)n2)nn1-c1ncccc1Cl [Example 72] | – | 100 | 100 | 3.81 | – | – | – | – | pest or weed control at 100 g/ha [4]: 80% |
| Cc1cc(Cl)cc(C(=O)NC(C)c2ccccc2F)c1NC(=O)c1cc(Cn2nnc(C(F)(F)F)n2)nn1-c1ncccc1Cl (stereo not drawn) [Example 87] | – | 100 | 100 | 3.98 | – | – | – | – | pest or weed control at 100 g/ha [4]: 80% |
| Cc1cc(Cl)cc(C(=O)NCc2ccc(N)cc2)c1NC(=O)c1cc(Cn2nnc(C(F)(F)F)n2)nn1-c1ncccc1Cl [Example 140] | – | 100 | 100 | 2.55 | – | – | – | – | pest or weed control at 100 g/ha [4]: 100% |
| Cc1cc(Cl)cc(C(=O)NCc2ccc(F)cn2)c1NC(=O)c1cc(Cn2nnc(C(F)(F)F)n2)nn1-c1ncccc1Cl [Example 224] | – | 100 | 100 | 3.24 | – | – | – | – | pest or weed control at 100 g/ha [4]: 90% |
| Cc1cc(Cl)cc(C(=O)NCc2ncc(F)cc2F)c1NC(=O)c1cc(Cn2nnc(C(F)(F)F)n2)nn1-c1ncccc1Cl [Example 231] | – | 100 | 100 | 3.5 | – | – | – | – | pest or weed control at 100 g/ha [4]: 90% |
| Cc1cc(Cl)cc(C(=O)NC(C)c2ccc(Cl)cn2)c1NC(=O)c1cc(Cn2nnc(C(F)(F)F)n2)nn1-c1ncccc1Cl (stereo not drawn) [Example 236] | – | 100 | 100 | 3.63 | – | – | – | – | pest or weed control at 100 g/ha [4]: 90% |
